For orientation: pIC50 means the IC50 on a negative log10 scale, so that one unit is a factor of ten.

Structures are written as SMILES. pIC50: −log10 of the molar value.

The source of these data is patent US7488740B2, “Substituted quinolin-4-ylamine analogues” (Neurogen Corporation, priority 2003, dated 2009).

For the test, the target named is T1, human capsaicin receptor (Homo sapiens, UniProt Q8NER1).
T1 construct: A cDNA encoding full length human capsaicin receptor recited in U.S. Pat. No. 6,482,611 was subcloned in the plasmid pBK-CMV; expressed in transfected cells
Nature of the test: Calcium mobilization assay (Example 6). The test is classed as cell-based. Particulars: concentration required to provide a 50% decrease in the fluorescence response of cells exposed to one IC50 of capsaicin. As for the experimental part: Human embryonic kidney (HEK293) cells were transfected with the pBK-CMV expression construct encoding the full length human capsaicin receptor using standard methods. The transfected cells were selected for two weeks in media containing G418 (400 μg/ml) to obtain a pool of stably transfected cells. Independent clones were isolated from this pool by limiting dilution to obtain clonal stable cell lines for use in subsequent experiments.
Cells transfected with expression plasmids (as described in Example 4) and thereby expressing human capsaicin receptor are seeded and grown to 70-90% confluency in FALCON black-walled, clear-bottomed 96-well plates (#3904, BECTON-DICKINSON, Franklin Lakes, N.J.). The culture medium is emptied from the 96 well plates and FLUO-3 AM calcium sensitive dye (Molecular Probes, Eugene, Oreg.) is added to each well (dye solution: 1 mg FLUO-3 AM, 440 μL DMSO and 440 μl 20% pluronic acid in DMSO, diluted 1:250 in Krebs-Ringer HEPES (KRH) buffer (25 mM HEPES, 5 mM KCl, 0.96 mM NaH2PO4, 1 mM MgSO4, 2 mM CaCl2, 5 mM glucose, 1 mM probenecid, pH 7.4), 50 μl diluted solution per well). Plates are covered with aluminum foil and incubated at 37° C. for 1-2 hours in an environment containing 5% CO2. After the incubation, the dye is emptied from the plates, and the cells are washed once with KRH buffer, and, resuspended in KRH buffer.
Agonist (e.g., olvanil, capsaicin, or RTX)-induced calcium mobilization is monitored using either FLUOROSKAN ASCENT (Labsystems, Franklin, Mass.) or FLIPR (fluorometric imaging plate reader system, Molecular Devices, Sunnyvale, Calif.) instruments. Varying concentrations of the antagonists ruthenium red or capsazepine (RBI; Natick, Mass.) are added to cells concurrently with agonist (e.g., 25-50 nM capsaicin). For agonist-induced calcium responses, data obtained between 30 and 60 seconds after agonist application are used to generate the IC50 values. KALEIDAGRAPH software (Synergy Software, Reading, Pa.) is used to fit the data to the equation: y=a*(1/(1+(b/x)^c)) to determine the IC50 for the response. In this equation, y is the maximum fluorescence signal, x is the concentration of the agonist or antagonist, a is the Emax, b corresponds to the IC50 value and c is the Hill coefficient.
To measure the ability of a test compound to antagonize (inhibit) the response of cells expressing capsaicin receptors to capsaicin or other vanilloid agonist, the IC50 of capsaicin is first determined. An additional 20 μl of KRH buffer and 1 μl DMSO is added to each well of cells, prepared as described above. 100 μl capsaicin in KRH buffer is automatically transferred by the FLIPR instrument to each well. An 8-point concentration response curve, with final capsaicin concentrations of 1 nM to 3 μM, is used to determine capsaicin IC50.
Test compounds are dissolved in DMSO, diluted in 20 μl KRH buffer so that the final concentration of test compounds in the assay well is between 1 μM and 5 μM, and added to cells prepared as described above. The 96 well plates containing prepared cells and test compounds are incubated in the dark, at room temperature for 0.5 to 6 hours. It is important that the incubation not continue beyond 6 hours. Just prior to determining the fluorescence response, 100 μl capsaicin in KRH buffer at twice the IC50 concentration determined from the concentration response curve is automatically added by the FLIPR instrument to each well of the 96 well plate for a final sample volume of 200 μl and a final capsaicin concentration equal to the IC50. The final concentration of test compounds in the assay wells is between 1 μM and 5 μM. […] Antagonists of the capsaicin receptor decrease this response by at least about 20%, preferably by at least about 50%, and most preferably by at least 80% as compared to matched control. The concentration of antagonist required to provide a 50% decrease is the IC50 for the antagonist, and is preferably below 1 micromolar, 100 nanomolar, 10 nanomolar or 1 nanomolar. […]
Background: A change in cytosolic calcium serves as a functional read-out for many receptors and channels.

T1 sequence (Q8NER1 whole entry): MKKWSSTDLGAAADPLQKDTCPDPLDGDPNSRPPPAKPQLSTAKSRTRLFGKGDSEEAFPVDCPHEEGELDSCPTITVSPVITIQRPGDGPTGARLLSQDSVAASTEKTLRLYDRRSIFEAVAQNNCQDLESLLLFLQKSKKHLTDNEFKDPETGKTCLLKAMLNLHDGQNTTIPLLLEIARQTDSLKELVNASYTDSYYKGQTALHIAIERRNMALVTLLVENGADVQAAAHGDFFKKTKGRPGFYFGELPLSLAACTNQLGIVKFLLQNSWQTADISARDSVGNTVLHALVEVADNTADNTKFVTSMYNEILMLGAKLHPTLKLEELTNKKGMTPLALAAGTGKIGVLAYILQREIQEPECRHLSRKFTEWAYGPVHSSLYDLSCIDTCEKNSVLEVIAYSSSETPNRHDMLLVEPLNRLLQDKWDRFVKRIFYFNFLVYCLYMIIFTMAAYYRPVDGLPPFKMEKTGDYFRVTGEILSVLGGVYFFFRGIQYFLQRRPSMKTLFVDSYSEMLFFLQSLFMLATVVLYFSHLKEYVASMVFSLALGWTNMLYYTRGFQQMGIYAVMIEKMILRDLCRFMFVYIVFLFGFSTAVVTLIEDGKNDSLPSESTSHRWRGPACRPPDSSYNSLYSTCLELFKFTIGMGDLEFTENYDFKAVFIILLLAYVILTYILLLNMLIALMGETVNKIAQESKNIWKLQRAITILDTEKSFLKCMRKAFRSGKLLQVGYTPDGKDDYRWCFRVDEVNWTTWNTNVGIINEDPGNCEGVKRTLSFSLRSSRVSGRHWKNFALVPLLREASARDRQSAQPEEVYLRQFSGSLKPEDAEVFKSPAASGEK

In the case of `FC(F)(F)c1ccc(Nc2cc(CN3CCOCC3)nc3nc(-c4ncccc4C(F)(F)F)ccc23)nc1` [Compound 91, 2-(morpholin-4-ylmethyl)-7-[3-(trifluoromethyl)pyridin-2-yl]-N-[5-(trifluoromethyl)pyridin-2-yl]-1,8-naphthyridin-4-amine], the pIC50 was at least 6.00.
As for `CC(C)c1cc(Nc2ccc(C(C)(C)O)cn2)c2ccc(-c3ncccc3C(F)(F)F)nc2n1` [Compound 118, 2-[6-({2-isopropyl-7-[3-(trifluoromethyl)pyridin-2-yl]-1,8-naphthyridin-4-yl}amino)pyridin-3-yl]propan-2-ol], the negative-log IC50 (pIC50) was at least 6.00.
As to `COCc1cc(Nc2ccc(C(F)(F)F)cc2)c2ccc(-c3ncccc3Cl)nc2n1` [Compound 51, 7-(3-chloropyridin-2-yl)-2-(methoxymethyl)-N-[4-(trifluoromethyl)phenyl]-1,8-naphthyridin-4-amine], the pIC50 was at least 6.00.
Next, `CC(C)COCc1cc(Nc2ccccn2)c2ccc(-c3ncccc3C(F)(F)F)nc2n1` [Compound 84, 2-(isobutoxymethyl)-N-pyridin-2-yl-7-[3-(trifluoromethyl)pyridin-2-yl]-1,8-naphthyridin-4-amine]: at least 6.00.
`CC(C)c1cc(Nc2ccc(C#N)cn2)c2ccc(-c3ncccc3C(F)(F)F)nc2n1` [Compound 104, 6-({2-isopropyl-7-[3-(trifluoromethyl)pyridin-2-yl]-1,8-naphthyridin-4-yl}amino)nicotinonitrile]: the pIC50 is at least 6.00.
As to `COCc1cc(Nc2ccc3c(c2)CN(C)CC3(C)C)c2ccc(-c3ncccc3C(F)(F)F)nc2n1` [Compound 17, 2-(methoxymethyl)-7-[3-(trifluoromethyl)pyridin-2-yl]-N-(2,4,4-trimethyl-1,2,3,4-tetrahydroisoquinolin-7-yl)-1,8-naphthyridin-4-amine], the pIC50 is at least 6.00.
On to `C[C@@H]1CN(Cc2cc(Nc3ccc(C(F)(F)F)cn3)c3ccc(-c4ncccc4C(F)(F)F)nc3n2)C[C@H](C)O1` [Compound 90, rel-2-{[(2R,6S)-2,6-dimethylmorpholin-4-yl]methyl}-7-[3-(trifluoromethyl)pyridin-2-yl]-N-[5(trifluoromethyl)pyridin-2-yl]-1,8-naphthyridin-4-amine], for which the pIC50 was at least 6.00.
Next, `FC(F)(F)c1cccnc1-c1ccc2c(Nc3ccc(Cl)cn3)cc(C3CCC3)nc2n1` [Compound 101, N-(5-chloropyridin-2-yl)-2-cyclobutyl-7-[3-(trifluoromethyl)pyridin-2-yl]-1,8-naphthyridin-4-amine]: at least 6.00; `CC(C)COCc1cc(Nc2ccc(C(C)(C)O)cn2)c2ccc(-c3ncccc3C(F)(F)F)nc2n1` [Compound 85, 2-[6-({2-(isobutoxymethyl)-7-[3-(trifluoromethyl)pyridin-2-yl]-1,8-naphthyridin-4-yl}amino)pyridin-3-yl]propan-2-ol]: at least 6.00.
As for `COc1cc(Nc2ccc(C(C)(C)C)cc2)c2ccc(-c3ncccc3C(F)(F)F)nc2n1` [Compound 47, N-(4-tert-butylphenyl)-2-methoxy-7-[3-(trifluoromethyl)pyridin-2-yl]-1,8-naphthyridin-4-amine], the pIC50 was at least 6.00.
With `CC(C)c1cc(Nc2ccc(Cl)cn2)c2ccc(-c3ncccc3C(F)(F)F)nc2n1` [Compound 105, N-(5-chloropyridin-2-yl)-2-isopropyl-7-[3-(trifluoromethyl)pyridin-2-yl]-1,8-naphthyridin-4-amine], the pIC50 is at least 6.00.
Take `Cc1cc(Nc2ccc(C(F)(F)F)cc2)c2ccc(-c3ncccc3C(F)(F)F)cc2n1` [Compound 1, 2-methyl-N-[4-(trifluoromethyl)phenyl]-7-[3-(trifluoromethyl)pyridin-2-yl]quinolin-4-amine]: the pIC50 is at least 6.00.
`CC(=O)COCc1cc(Nc2ccc(C(F)(F)F)cc2)c2ccc(-c3ncccc3C(F)(F)F)nc2n1` [Compound 67, 1-({4-{[4-(trifluoromethyl)phenyl]amino}-7-[3-(trifluoromethyl)pyridin-2-yl]-1,8-naphthyridin-2-yl}methoxy)acetone]: the pIC50 was at least 6.00.
Consider `C[C@@H](OCc1cc(Nc2ccc(C(F)(F)F)cc2)c2ccc(-c3ncccc3C(F)(F)F)nc2n1)C(C)(C)O` [Compound 86, 2-methyl-3-({4-{[4-(trifluoromethyl)phenyl]amino}-7-[3-(trifluoromethyl)pyridin-2-yl]-1,8-naphthyridin-2-yl}methoxy)butan-2-ol], for which the pIC50 was at least 6.00.
As for `COCc1cc(Nc2ccc(C(C)(C)C)cc2)c2ccc(-c3ncccc3C(F)(F)F)nc2n1` [Compound 3], the pIC50 was at least 6.00.
To `CCCc1cc(Nc2ccc(CC)cn2)c2ccc(-c3ncccc3C(F)(F)F)nc2n1` [Compound 128, N-(5-ethylpyridin-2-yl)-2-propyl-7-[3-(trifluoromethyl)pyridin-2-yl]-1,8-naphthyridin-4-amine] belongs at least 6.00.
Consider `CC(C)OCc1cc(Nc2ccc(C(F)(F)F)cc2)c2ccc(-c3ncccc3C(F)(F)F)nc2n1` [Compound 41, 2-(isopropoxymethyl)-N-[4-(trifluoromethyl)phenyl]-7-[3-(trifluoromethyl)pyridin-2-yl]-1,8-naphthyridin-4-amine], for which the pIC50 is at least 6.00.
In the case of `O=C1OCc2nc3nc(-c4ncccc4C(F)(F)F)ccc3c(Nc3ccc(C(F)(F)F)cc3)c21` [Compound 12, 5-{[4-(trifluoromethyl)phenyl]amino}-2-[3-(trifluoromethyl)pyridin-2-yl]furo[3,4-b]-1,8-naphthyridin-6(8H)-one], the pIC50 was at least 6.00.
Regarding `CCc1cc(Nc2ccc(C(C)(C)O)cn2)c2ccc(-c3ncccc3C(F)(F)F)nc2n1` [Compound 112, 2-[6-({2-ethyl-7-[3-(trifluoromethyl)pyridin-2-yl]-1,8-naphthyridin-4-yl}amino)pyridin-3-yl]propan-2-ol], the pIC50 was at least 6.00.
To `CCOc1cc(Nc2ccc(S(=O)(=O)C(F)(F)F)cc2)c2ccc(-c3ncccc3C(F)(F)F)nc2n1` [Compound 46, 2-ethoxy-7-[3-(trifluoromethyl)pyridin-2-yl]-N-{4-[(trifluoromethyl)sulfonyl]phenyl}-1,8-naphthyridin-4-amine] belongs at least 6.00; to `COCc1cc(Nc2ccc(C(F)(F)F)cc2)c2ccc(-c3ncccc3C(F)(F)F)nc2n1` [Compound 2], at least 6.00; to `FC(F)(F)c1ccc(Nc2cc(C3CCC3)nc3nc(-c4ncccc4C(F)(F)F)ccc23)nc1` [Compound 98, 2-cyclobutyl-7-[3-(trifluoromethyl)pyridin-2-yl]-N-[5-(trifluoromethyl)pyridin-2-yl]-1,8-naphthyridin-4-amine], at least 6.00.
Turning to `FC(F)(F)c1cnc(Nc2ccnc3nc(-c4ncccc4Cl)ccc23)nc1` [Compound 145, 7-(3-chloropyridin-2-yl)-N-[5-(trifluoromethyl)pyrimidin-2-yl]-1,8-naphthyridin-4-amine], the pIC50 is at least 6.00.
Turning to `CCOc1cc(Nc2ccc(C(F)(F)F)cc2)c2ccc(-c3ncccc3C(F)(F)F)nc2n1` [Compound 36, 2-ethoxy-N-[4-(trifluoromethyl)phenyl]-7-[3-(trifluoromethyl)pyridin-2-yl]-1,8-naphthyridin-4-amine], the pIC50 was at least 6.00.
Regarding `COc1cc(Nc2ccc(C(F)(F)F)cn2)c2ccc(-c3ncccc3C(F)(F)F)nc2n1` [Compound 96, 2-methoxy-7-[3-(trifluoromethyl)pyridin-2-yl]-N-[5-(trifluoromethyl)pyridin-2-yl]-1,8-naphthyridin-4-amine], the negative-log IC50 (pIC50) is at least 6.00.
